Laboratory results: publication PMC9655717, “New Molecules of Diterpene Origin with Inhibitory Properties toward α-Glucosidase” (International Journal of Molecular Sciences, 2022)
In brackets after ≈: the same amount, converted by molar mass. Read-outs that look alike come from different tables or passages of the source. Values belong to the compound of their own block, whether it stands above or below them.

Experiments:
[1] = target: T1, yeast α-GLy (α-glucosidase, Sigma G0660) (Saccharomyces cerevisiae, UniProt P53341); assay: biochemical; assay type: biochemical; details: yeast α-glucosidase; for IC50: 37°C, pH 6.8
T1 construct: purchased Sigma G0660
T1 sequence (P53341 whole entry): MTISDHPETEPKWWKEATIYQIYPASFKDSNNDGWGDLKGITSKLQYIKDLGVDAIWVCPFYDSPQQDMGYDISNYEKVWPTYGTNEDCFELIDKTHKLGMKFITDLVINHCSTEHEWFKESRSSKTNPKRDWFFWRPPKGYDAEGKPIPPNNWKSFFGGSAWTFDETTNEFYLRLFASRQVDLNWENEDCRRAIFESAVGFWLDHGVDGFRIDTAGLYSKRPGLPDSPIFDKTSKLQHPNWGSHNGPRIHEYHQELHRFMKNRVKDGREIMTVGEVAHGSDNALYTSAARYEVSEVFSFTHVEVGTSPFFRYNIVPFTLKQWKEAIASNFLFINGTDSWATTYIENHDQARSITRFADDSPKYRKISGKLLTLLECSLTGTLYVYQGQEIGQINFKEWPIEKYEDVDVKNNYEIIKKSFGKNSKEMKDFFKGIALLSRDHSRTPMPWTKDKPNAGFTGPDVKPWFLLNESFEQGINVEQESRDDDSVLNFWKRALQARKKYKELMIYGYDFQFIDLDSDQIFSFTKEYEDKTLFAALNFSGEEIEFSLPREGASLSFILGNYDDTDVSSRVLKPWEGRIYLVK
Protocol: S1. Materials and Methods […]
glucosidase inhibition assay. α-Glucosidase enzyme inhibition assay was carried out in a 96-well microplate. The method’s principle based on the hydrolyzed reaction of 4-nitrophenyl-α-D-glucopiranoside with α-glucosidase enzyme into yellow 4- […]
p-Nitrophenyl α-D-Glucoside a- Gl ucosidas e α-D-Glucose + p- Nitrophenol α-Glucosidase inhibitory activity assay was performed following the modified method of Pistia Brueggeman and Hollingsworth with slight modification. Quinopimaric […]
concentrations of 256, 64, 16, 4 and 1 µg/mL. In a 96-well plate, a reaction mixture containing 20 μL of phosphate buffer (100 mM; pH 6.8), 20 μL of α-glucosidase (0.3 U/mL, Sigma G0660) (this concentration was determined by a series of α-glucosidase […]
linearity between the enzyme concentration and the absorbance of yellow color mixture after reaction which was approximately 5-fold higher than the back ground and at least […]
concentrations was pre-incubated for 10 min at 37°C. Then 20 μL of […] p-nitrophenyl α-D-glucopyranoside (Sigma N1377) was added to the mixture as a substrate. After further incubation at 37°C for 30 min, the reaction was stopped by adding 80 μL of 0.1 […]
solution were prepared using the phosphate buffer […]; pH 6.8. […]
as a positive control and water as negative control. The yellow color produced was quantitated by colorimetric analysis and reading the absorbance at 410 nm. Each experiment was performed in triplicates, along with appropriate blanks. The solvent DMSO was use as negative control to evaluate its effect on α-glucosidase activity. […]
or substrate in negative control. Back ground was determined by volume of buffer as […]
The % inhibition has been obtained using the formula:
% inhibition = {Absorbance (control) –Absorbance (sample)}/Absorbance (control) IC50 value is defined as the concentration of samples inhibiting 50% of α-glucosidase activity under the stated assay conditions. […]

[2] = DPPH radical scavenging assay; details: DPPH 0.1 mM in methanol, 25°C, 30 min
Protocol: DPPH radical scavenging assay as described by Ha. The hydrogen atom donating ability of the plant extractives was determined by the decolorization of methanol solution of 2,2-diphenyl-1-picrylhydrazyl (DPPH). DPPH produces purple color in methanol solution and fades to shades of yellow color in the presence of antioxidants. […]
DPPH (0.1 mM) was diluted in methanol. 200 μL of this solution was added to 1.3 μL of various concentrations of compounds in DMSO (256.0, 64.0, 16.0, and 4.0 μg/mL). The mixture was performed by a 96-well plate at 25 °C in 30 min. Then, absorbance was determined by Epoch™ Microplate Spectrophotometer (at 517 nm). The percentage of DPPH quenching activity was computed by the following formula:
Inhibitory percentage SC (%) = [(Ao - A1)/Ao] × 100. where AO was defined as the absorbance of control reaction, and A1 represented for the absorbance in the presence of test or standard sample. Each experiment was repeated three times. Quercetin was used as a reference compound. […]

[3] = tested on: Bacillus subtilis (ATCC 6633); assay: Antimicrobial broth microdilution; assay type: cell-based; details: ATCC6633, B. subtilis
Protocol: (§1) Table S2. The result of antimicrobial tests of compounds 38, 45, 48 and 50.
(§2) Gram (+) strains Gram (-) strains Fungi
(§3) Compound Values (µg/ml) S. aureus B. L. S. E. P. C. subtilis fermentum enterica coli aeruginosa albican
(§4) The antimicrobial activity was determined by broth microdilution method as reported by. Broth dilution testing is one of the common methods used for determination of the MICs and IC50. The compounds are examined for visible bacterial growth as evidenced by turbidity. […]
(§5) S1.5. In vitro antimicrobial activity study of compounds 38, 45, 48 and 50 The Gram-positive bacteria: Bacillus subtilis (ATCC 6633), Lactobacillus fermentum (N4), Staphylococcus aureus (ATCC 13709); Gram -negative bacteria: Escherichia coli (ATCC 25922), Pseudomonas aeruginosa (ATCC 15442), Salmonella enterica; Yeast: Candida albicans (ATCC 10231) were obtained from American Type Culture Collection. The bacterial […]
(§6) Sabourand 2% dextrose broth, were purchased from Merck. […]
(§7) remaining at –80 0 C. Before assay, they were activated by culture medium and, adjusted the concentration to 5x10^5 CFU/mL. 10 μL of each concentration of each test […]
(§8) further incubated at 37 °C within 16-24h. The experiment was triplicated. Positive […]
(§9) medium without bacteria as a negative control. Ampicillin was used as a reference […]
(§10) inhibiting 50% the visible growth of the tested microorganisms. MIC, IC50 values are typically expressed as molar concentration. […]
(§11) treated with sample different concentrations on 96-well plates. Untreated cells represented the controls. […]
(§12) crystals are visible. Remove MTT and add DMSO solution (100 μL). The optical density […]
(§13) are evaluated to have cytotoxic activity.

[4] = tested on: Candida albicans (ATCC 10231); assay: Antimicrobial broth microdilution; assay type: cell-based; details: ATCC10231, C. albican
Protocol: as §1, §2, §3, §4, §5, §6, §7, §8, §9, §10, §11, §12, §13

[5] = tested on: Escherichia coli (ATCC 25922); assay: Antimicrobial broth microdilution; assay type: cell-based; details: ATCC25922, E. coli
Protocol: as §1, §2, §3, §4, §5, §6, §7, §8, §9, §10, §11, §12, §13

[6] = tested on: Lactobacillus fermentum (N4); assay: Antimicrobial broth microdilution; assay type: cell-based; details: L. fermentum
Protocol: as §1, §2, §3, §4, §5, §6, §7, §8, §9, §10, §11, §12, §13

[7] = tested on: Pseudomonas aeruginosa (ATCC 15442); assay: Antimicrobial broth microdilution; assay type: cell-based; details: ATCC15442, P. aeruginosa
Protocol: as §1, §2, §3, §4, §5, §6, §7, §8, §9, §10, §11, §12, §13

[8] = tested on: Salmonella enterica; assay: Antimicrobial broth microdilution; assay type: cell-based; details: S. enterica
Protocol: as §1, §2, §3, §4, §5, §6, §7, §8, §9, §10, §11, §12, §13

[9] = tested on: Staphylococcus aureus (ATCC 13709); assay: Antimicrobial broth microdilution; assay type: cell-based; details: ATCC13709, S. aureus
Protocol: as §1, §2, §3, §4, §5, §6, §7, §8, §9, §10, §11, §12, §13

[10] = MTT cytotoxicity assay; details: human
Protocol: The cytotoxic activity of compounds was evaluated against four cancer cell lines KB, Hep-G2, Lu-1 and MCF-7, using colorimetric MTT assay. […]
MTT assay was used to determine the cytotoxic activity of compounds with human cancer cell lines acquired from the American Type Culture Collection (ATCC): epidermoid carcinoma (KB, ATCC number CCL-17), hepatocellular carcinoma (HepG2, ATCC number HB-8065), lung adenocarcinoma LU-1 (ATCC number HTB - 57TM), breast adenocarcinoma MCF-7 (ATCC number HTB - 22TM. Cells were cultured in medium DMEM supplemented with 10% Fetal bovine serum (FBS), 1% Penicillin and Streptomycin and 1% L-glutamine, under a humidified atmosphere of 5% CO2 at 37°C.
Compounds were dissolved in DMSO at 40 mg/mL and a series of dilutions for each compound was prepared to final concentrations of 256, 64, 16, 4 and 1 μg/mL. Cells were separated with trypsin and seeded in each well with 3 x10^4 cells per ml and were treated with sample different concentrations on 96-well plates. Untreated cells represented the controls. After 72h of treatment, an MTT solution (10 μl, 5 mg/mL) of phosphate buffer was added to each well for 4 h until intracellular purple formazan crystals are visible. Remove MTT and add DMSO solution (100 μL). The optical density of the solution was determined by Epoch™ Microplate Spectrophotometer at 540 nm. The inhibition ratio was calculated based on the optical densities from the three replicate […]
as §13

[11] = IC50 ± SE, α-glucosidase inhibition

SMILES: C#CCOC(=O)C1(C)CCCC2(C)C1CCC13C=C(C(C)C)C(CC12)C1=C3C(=O)C=CC1=O (stereo not drawn) [Compound 48, Propynyl 13-isopropyl-7,10a-dimethyl-1,4-di oxo-4,5,6,6a,7,8,9,10,10a,10b,11,12-dodecahydro-1H-4b,12-ethenochrysene-7-carboxylate]
IC50 [1, 11]: 680 ± 45 nM
IC50 values, antioxidant test (DPPH) [2]: 177.45 ± 3.5 µg/mL (≈ 397 µM)
IC50 [3]: 45 ± 2.18 µg/mL (≈ 101 µM)
MIC [3]: 256 µg/mL (≈ 573 µM)
IC50 [4]: > 256 µg/mL
MIC [4]: > 256 µg/mL
IC50 [5]: > 256 µg/mL
MIC [5]: > 256 µg/mL
IC50 [6]: 43.5 ± 2.52 µg/mL (≈ 97.5 µM)
MIC [6]: 256 µg/mL (≈ 573 µM)
IC50 [7]: > 256 µg/mL
MIC [7]: > 256 µg/mL
IC50 [8]: > 256 µg/mL
MIC [8]: > 256 µg/mL
IC50 [9]: 8.29 ± 0.58 µg/mL (≈ 18.6 µM)
MIC [9]: 64 µg/mL (≈ 143 µM)
IC50 at 72 h ([10]; Hep-G2 hepatocellular carcinoma cells (ATCC HB-8065)): 46 ± 0.8 µg/mL (≈ 103 µM)
IC50 at 72 h ([10]; KB epidermoid carcinoma cells (ATCC CCL-17)): 30.5 ± 0.7 µg/mL (≈ 68.3 µM)
IC50 at 72 h ([10]; Lu-1 lung adenocarcinoma cells (ATCC HTB-57)): 10.2 ± 0.18 µg/mL (≈ 22.7 µM)
IC50 at 72 h ([10]; MCF-7 breast adenocarcinoma cells (ATCC HTB-22)): 39.2 ± 0.78 µg/mL (≈ 87.9 µM)
melting point: 85 to 89 °C

IC50 values, antioxidant test (DPPH) [2]: 8.01 ± 0.15 µg/mL (≈ 26.5 µM)
SMILES: O=c1c(O)c(-c2ccc(O)c(O)c2)oc2cc(O)cc(O)c12 [Quercetin, reference compound]

SMILES: CCOC(=O)c1c(C)[nH]c2c3c(c(O)cc12)C1CC2C3(C=C1C(C)C)CCC1C(C)(C(=O)O)CCCC12C (stereo not drawn) [Compound 42, 1-Hydroxy-13-isopropyl-1′-(ethoxycarbonyl)-7,10a,2′-trimethyl-5,6,6b,7,8,9,10,10a, 10b,11,12,13-dodecahydro-12,4b-ethenophenanthro-[2,1-g]indole-7-carboxylic acid]
IC50 [1, 11]: 2520 ± 340 nM
α-GLy inhibitory activity, in words [1]: very good activity
melting point: 131 to 133 °C

IC50 ([1]; read-out: IC50 ± SE, α-glucosidase inhibition): 8940 ± 960 nM
SMILES: COC(=O)c1c(C)[nH]c2c3c(c(O)cc12)[C@H]1C[C@@H]2[C@@]4(C)CCC[C@@](C)(C(=O)OC)[C@@H]4CC[C@@]32C=C1C(C)C [Compound 36]

SMILES: COC(=O)[C@]1(C)CCC[C@]2(C)[C@H]3C[C@H]4C(C(C)C)=C[C@]3(CC[C@H]21)[C@@H]1C(=O)CC[C@H](OC(=O)c2ccccc2C(=O)O)[C@@H]14 [Compound 20]
IC50 [1, 11]: > 255000 nM
